Source: PubChem BioAssay (NCI)
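In this assay, cells in 96-well plates receive the compound at five concentrations for 48 hours. Endpoints are linearly interpolated between the surrounding concentrations. TGI: total growth inhibition.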 Where a SMILES comes first, the peptide text is derived from it. Bridges are numbered along the chain shown (N, C = ends). The star is where a group is joined. Cbz = O=C(OCc1ccccc1)*

Columns and labels:
Assay in all cases: NCI-60 cell line screen, 48 h
786-0 renal = tested on: 786-0 renal
A549 NSCLC = tested on: A549 NSCLC
ACHN renal = tested on: ACHN renal
COLO 205 colon = tested on: COLO 205 colon
HCT-15 colon = tested on: HCT-15 colon
HOP-62 NSCLC = tested on: HOP-62 NSCLC
KM12 colon = tested on: KM12 colon
MALME-3M melanoma = tested on: MALME-3M melanoma
MCF7 breast = tested on: MCF7 breast
NCI-H226 lung = tested on: NCI-H226 lung
NCI/ADR-RES ovarian = tested on: NCI/ADR-RES ovarian
OVCAR-4 ovarian = tested on: OVCAR-4 ovarian
SF-295 CNS = tested on: SF-295 CNS
SK-MEL-2 melanoma = tested on: SK-MEL-2 melanoma
T-47D breast = tested on: T-47D breast
TK-10 renal = tested on: TK-10 renal
U251 CNS = tested on: U251 CNS
UACC-62 melanoma = tested on: UACC-62 melanoma
HCC-2998 colon = tested on: HCC-2998 colon
SNB-75 CNS = tested on: SNB-75 CNS

SMILES	TGI (786-0 renal) [µM]	TGI (A549 NSCLC) [µM]	TGI (ACHN renal) [µM]	TGI (COLO 205 colon) [µM]	TGI (HCT-15 colon) [µM]	TGI (HOP-62 NSCLC) [µM]	TGI (KM12 colon) [µM]	TGI (MALME-3M melanoma) [µM]	TGI (MCF7 breast) [µM]	TGI (NCI-H226 lung) [µM]	TGI (NCI/ADR-RES ovarian) [µM]	TGI (OVCAR-4 ovarian) [µM]	TGI (SF-295 CNS) [µM]	TGI (SK-MEL-2 melanoma) [µM]	TGI (T-47D breast) [µM]	TGI (TK-10 renal) [µM]	TGI (U251 CNS) [µM]	TGI (UACC-62 melanoma) [µM]	TGI (HCC-2998 colon) [µM]	TGI (SNB-75 CNS) [µM]
CCOC(=O)c1nc2ccccc2nc1Oc1cc(OC)cc(OC)c1	> 100	> 100	> 100	> 100	> 100	> 100	> 100	> 100	> 100	> 100	> 100	> 100	> 100	> 100	> 100	> 100	> 100	> 100	–	–
CC(=O)c1ccc(Br)cc1NC1=CC(=O)c2ncccc2C1=O	15.3	10.6	12.5	11.4	10.3	13.1	11.7	5.69	11.6	15.5	14.9	11.2	14.3	16.9	9.37	31.4	19.7	6.13	8.54	5.58
Cc1cn([C@@H]2O[C@H](CO[Si](C)(C)C(C)(C)C)[C@]3(O[C@H]3C(=O)NO)[C@H]2O[Si](C)(C)C(C)(C)C)c(=O)[nH]c1=O	2.87	3.63	3.06	–	3.62	3.52	3.71	5.07	3.15	3.69	18.5	3.77	3.4	3.9	4.07	5.35	3.07	3.38	2.97	3.71
O=C(O)c1cc(CCc2ccc(O)c(O)c2)ccc1O	> 100	> 100	> 100	> 100	> 100	> 100	> 100	> 100	> 100	> 100	> 100	–	> 100	> 100	> 100	–	> 100	> 100	> 100	> 100
CCNC1=C(NC(=O)c2ccc(F)cc2)C(=O)c2ccccc2C1=O	> 100	> 100	> 100	> 100	> 100	> 100	> 100	47.5	> 100	> 100	> 100	> 100	> 100	–	> 100	> 100	–	> 100	> 100	> 100
Cc1nc2ccc(F)cc2c2c1CCS2	> 100	> 100	> 100	> 100	> 100	> 100	> 100	> 100	> 100	–	> 100	> 100	> 100	–	> 100	> 100	> 100	> 100	> 100	> 100
COc1cc2nc(-c3cccs3)nc(Nc3cccc([N+](=O)[O-])c3)c2cc1OC	40.9	53.8	38.3	54.1	31.8	36.1	40.6	35.2	59.1	58.7	46.9	> 100	42.4	39.8	38.6	37	32.4	31.1	–	78.8
CCC(C)N1CN(c2ccccc2)C2(CCN(CC3COc4ccccc4O3)CC2)C1=O (stereo not drawn)	35.5	> 100	> 100	47.7	61.1	41.7	43.9	34.6	49.6	52.3	44.1	–	39.1	–	51.3	86.2	38.7	49.8	38.8	> 100
Cc1ccc2c(c1C)C(=O)C1(C2)Cc2ccc3c(c2C1=O)CCC3 (stereo not drawn)	> 100	> 100	> 100	> 100	> 100	–	> 100	> 100	> 100	> 100	> 100	> 100	> 100	> 100	> 100	> 100	> 100	> 100	> 100	> 100
CC(C)(C)C(=O)/C=C(\OB(F)F)C(C)(C)C	> 100	> 100	> 100	> 100	> 100	> 100	> 100	> 100	> 100	> 100	> 100	> 100	> 100	> 100	> 100	> 100	> 100	–	> 100	> 100
C=C1CC[C@](C)(O)[C@@]2(C)CC[C@H]3C(=C(C)C)C(=O)C[C@]3(C)C[C@H]12	> 50	> 50	> 50	> 50	46.2	> 50	> 50	–	> 50	> 50	> 50	> 50	> 50	> 50	> 50	> 50	> 50	> 50	> 50	> 50
COC(=O)C(=O)C(C(=O)C(=O)Nc1ccc(Cl)c(Cl)c1)c1nc2ccc(C(=O)c3ccccc3)cc2[nH]c1=O (stereo not drawn)	> 100	> 100	> 100	–	–	> 100	> 100	> 100	> 100	> 100	> 100	–	> 100	> 100	> 100	> 100	> 100	> 100	–	> 100
CNC(=O)C1CCCCNC(=O)CCC(NC(=O)OCc2ccccc2)C(=O)N1 (stereo not drawn) (Cbz-Glu-Lys-NHMe; lactam 1-2; configuration not given here)	> 100	> 100	> 100	> 100	> 100	> 100	> 100	> 100	> 100	> 100	> 100	> 100	> 100	> 100	> 100	> 100	> 100	> 100	–	> 100
Cc1ccc(-c2n[nH]c(=O)n2/N=C\c2ccccc2O)cc1	> 100	> 100	> 100	> 100	> 100	> 100	> 100	> 100	> 100	> 100	> 100	> 100	> 100	> 100	> 100	> 100	> 100	–	> 100	> 100
O=c1[nH]c(=S)[nH]cc1CN1CCOCC1	> 100	> 100	> 100	> 100	> 100	> 100	> 100	> 100	> 100	–	> 100	> 100	> 100	> 100	> 100	> 100	> 100	> 100	> 100	> 100
COc1cccc(OC)c1C1ON=C(c2ccccc2)N1C12CC3CC(CC(C3)C1)C2 (stereo not drawn)	> 100	> 100	> 100	> 100	> 100	> 100	> 100	> 100	> 100	> 100	> 100	–	> 100	> 100	> 100	> 100	> 100	> 100	> 100	> 100
CN(C)c1cccc(-c2cc(=S)c3cc4c(cc3[nH]2)OCO4)c1	> 100	> 100	> 100	> 100	> 100	> 100	> 100	> 100	> 100	> 100	> 100	> 100	> 100	> 100	> 100	> 100	> 100	> 100	> 77.7	–
C#CCN(Cc1ccc2nc(-c3ccccc3)c(Cl)nc2c1)c1ccc(F)cc1	> 100	> 100	> 100	> 100	> 100	> 100	> 100	> 100	> 100	–	> 100	> 100	> 100	> 100	> 100	> 100	> 100	> 100	> 100	> 100
Cc1nnc2n1N=C(c1cc(F)c(Cl)cc1Cl)/C(=C/c1ccc(-c3ccc([N+](=O)[O-])cc3)o1)S2	> 100	> 100	> 100	> 100	> 100	> 100	> 100	> 100	> 100	–	> 100	> 100	> 100	> 100	> 100	–	> 100	> 100	> 100	–
COCN1C(=O)[C@@H]2CCCN2C(=O)c2cc(OC)c(Cc3ccccc3)cc21	> 100	> 100	> 100	–	> 100	> 100	> 100	> 100	> 100	–	> 100	> 100	> 100	> 100	> 100	> 100	> 100	> 100	–	> 100
NC(N)=N/N=C/c1c(-c2ccccc2[N+](=O)[O-])nc2sccn12	35.3	> 100	> 100	29.4	> 100	69.5	46.9	32.3	38.1	39.1	> 100	> 100	50	30.4	59	57	31.2	32.7	–	34.2
COc1ccc2c(-c3csc(-c4c[nH]c5ccc(Br)cc45)n3)c[nH]c2c1	> 100	> 100	> 100	> 100	> 100	> 100	> 100	43.9	> 100	> 100	> 100	> 100	> 100	> 100	> 100	> 100	> 100	> 100	–	–
C=CCN1C(=O)CC2[C@@H]3CCc4cc(O)ccc4C3CC[C@]2(C)C1=O (stereo partly drawn)	> 10	> 10	> 10	> 10	> 10	> 10	> 10	> 10	> 10	> 10	> 10	> 10	> 10	> 10	> 10	> 10	> 10	> 10	> 10	–
C[N+]1(C)C2CC(OC(=O)C(CO)c3ccccc3)CC1C1OC12 (stereo not drawn)	> 100	> 100	> 100	> 100	> 100	> 100	> 100	> 100	> 100	> 100	> 100	> 100	> 100	> 100	> 100	> 100	> 100	> 100	–	> 100
O=C1CSC(c2c[nH]c3ccccc23)N1c1cccc(Cl)c1 (stereo not drawn)	47.1	> 100	> 100	> 100	> 100	> 100	> 100	–	> 100	> 100	> 100	> 100	> 100	65.2	> 100	> 100	> 100	> 100	> 100	> 100
